From article PMC3608651, “A Broad Profile of Co-Dominant Epitopes Shapes the Peripheral Mycobacterium tuberculosis Specific CD8+ T-Cell Immune Response in South African Patients with Active Tuberculosis” (PLoS ONE, 2013)

Assays:
Format in all cases: binding
[1] = molecular target: T1, HLA-B*07:02 (Homo sapiens, UniProt P01889); settings: percent relative the binding of positive control peptide […]; duplicated experiments; positive binder >40%
[2] = molecular target: T2, HLA-A*68:01 (Homo sapiens, UniProt P04439, A269V/D185E/E176V/E277Q/E87N/F33Y/G231S/I121M/I166T/I218V/L180W/L300P/L318F/N151K/P208A/P217A/Q86R/R169H/T345S); settings: percent relative the binding of positive control peptide […]; duplicated experiments; positive binder >40%
[3] = molecular target: T3, HLA-C*07:01 (Homo sapiens, UniProt P10321, K90N/S123Y); settings: percent relative the binding of positive control peptide […]; duplicated experiments; positive binder >40%
[4] = molecular target: T4, HLA-A*30:01 (Homo sapiens, UniProt P04439, D140H/D185E/E176W/F33S/G80R/H175R/K168Q/R138E/R41S); settings: percent relative the binding of positive control peptide […]; duplicated experiments; positive binder >40%
[5] = molecular target: T5, HLA-A*30:02 (Homo sapiens, UniProt P04439, D101N/D140H/D185E/E176R/F33S/G80R/H175R/K168Q/Q94H/R138E/R41S/V100E); settings: time points 0-8 h
[6] = molecular target: T5, HLA-A*30:02
[7] = molecular target: T6, HLA-A*02:01 (Homo sapiens, UniProt P04439, D140Y/D185E/D98H/E176V/E277Q/G131W/G231S/I119V/I121R/I166T/I218V/L300P/L318F/N151K/N90K/P208A/P217A/Q86G/Q94H/R138H/R169H/T345S); settings: percent relative the binding of positive control peptide […]; plate-bound monomer 0.5 µg/ml; duplicated experiments; positive binder >40%
[8] = molecular target: T7, HLA-A*24:02 (Homo sapiens, UniProt P04439, D101N/D140Y/D185E/E176V/E190D/F33S/G103R/G107R/I119L/I121M/I306V/K335N/L105A/L180Q/L300P/N151K/N90K/Q86E/Q94H/R106L/R138H/R89G/T104I/T345S/V100E/W191G/Y123F)
[9] = molecular target: T6, HLA-A*02:01; settings: […]; peptide quantity for 50% binding saturation
[10] = molecular target: T4, HLA-A*30:01; assay: off-rate assay (t1/2); settings: time points 0-8 h
[11] = molecular target: T4, HLA-A*30:01; assay: affinity assay (ED50); settings: peptide titrated 10−4 to 10−9 M
[12] = molecular target: T7, HLA-A*24:02; settings: time points 0-8 h
[13] = molecular target: T8, HLA-B*58:01 (Homo sapiens, UniProt P01889, A329T/C349S/D201E/D98Y/E176V/E187L/E204Q/E69T/G107R/I218V/I90N/K202T/L105A/L119I/N104I/N87E/Q89R/Q94S/R106L/R155S/R180L/R86G/S101N/S121R/S35A/S48A/T118I/V127L/V306I/V36M/Y140S/Y91M); settings: percent relative the binding of positive control peptide […]; duplicated experiments; positive binder >40%
[14] = molecular target: T6, HLA-A*02:01; settings: time points 0-8 h; time when 50% of peptide has dissociated
[15] = molecular target: T5, HLA-A*30:02; settings: percent relative the binding of positive control peptide […]; duplicated experiments; positive binder >40%
[16] = molecular target: T7, HLA-A*24:02; settings: percent relative the binding of positive control peptide […]; duplicated experiments; positive binder >40%
[17] = molecular target: T1, HLA-B*07:02; assay: off-rate assay (t1/2); settings: time points 0-8 h
[18] = molecular target: T8, HLA-B*58:01
[19] = molecular target: T8, HLA-B*58:01; settings: time points 0-8 h
[20] = molecular target: T1, HLA-B*07:02; assay: affinity assay (ED50); settings: peptide titrated 10−4 to 10−9 M
[21] = molecular target: T3, HLA-C*07:01; assay: off-rate assay (t1/2); settings: time points 0-8 h
[22] = molecular target: T3, HLA-C*07:01; assay: affinity assay (ED50)
[23] = molecular target: T2, HLA-A*68:01
[24] = molecular target: T2, HLA-A*68:01; settings: time points 0-8 h

Substance	Bind B*07:02 [1]	Bind A*68:01 [2]	Bind C*07:01 [3]	Bind A*30:01 [4]	O-rate A*30:02 (t1/2) [5]	Aff A*30:02 (ED50) [6]	Bind A*02:01 [7]	Aff A*24:02 (ED50) [8]	Aff A*02:01 (ED50) [9]	O-rate A*30:01 (t1/2) [10]	Aff A*30:01 (ED50) [11]	O-rate A*24:02 (t1/2) [12]	Bind B*58:01 [13]	O-rate A*02:01 (t1/2) [14]	Bind A*30:02 [15]	Bind A*24:02 [16]	O-rate B*07:02 (t1/2) [17]	Aff B*58:01 (ED50) [18]	O-rate B*58:01 (t1/2) [19]	Aff B*07:02 (ED50) [20]	also measured
AMKGDLQSS	9%	0%	23%	129%	120 min	1E -07 M	89%	400000 nM	2E -07 M	30 min	2E -06 M	18 min	0%	102 min	47%	42%					
YAGSLSALL	41%	13%	19%	0%	54 min	2e-07 M	66%	1000 nM				72 min	58%		64%	81%	36 min	3E -08 M	42 min	1e-05 M	
VANNT RLWV	61%	3%	69%	141%	48 min	1e-07 M	77%	4000 nM	5E -07 M	30 min	3E -08 M	18 min	49%	150 min	171%	58%	42 min	1e-08 M	114 min	6e-07 M	O-rate C*07:01 (t1/2) [21]: 36 min; Aff C*07:01 (ED50) [22]: 3E -07 M
LSMAGSSAM	92%	51%	71%	0%	66 min	3E -06 M	72%		2e-07 M				0%	84 min	79%	14%	156 min			3E -07 M	Aff A*68:01 (ED50) [23]: 1E -06 M; O-rate C*07:01 (t1/2) [21]: 72 min; O-rate A*68:01 (t1/2) [24]: 132 min; Aff C*07:01 (ED50) [22]: 3E -06 M
WL S ANR AV K	49%	139%	16%	179%			13%			30 min	1E -06 M		1%		6%	40%	42 min			2E -06 M	Aff A*68:01 (ED50) [23]: 2E -07 M; O-rate A*68:01 (t1/2) [24]: 126 min
MGRDIKVQF	41%	10%	68%	0%	18 min	7e-08 M	0%						61%		61%	25%	18 min	3e-07 M	18 min	8e-07 M	O-rate C*07:01 (t1/2) [21]: 12 min; Aff C*07:01 (ED50) [22]: 8e-08 M
